Experimental findings from patent US10808128B2, “Compounds as fluorescent probes, synthesis and applications thereof” (priority 2018, dated 2020) are described below.

Entries after “also recorded” stand apart in the source; their conditions may differ.

Data set [1] concerns mitochondria of live human primary fibroblasts. Put plainly: Photo-toxicity study during repeat photo-illumination and fast mitochondrial imaging. In kind it is cell-based. Conditions: for photostability during fast imaging of mitochondria: human primary fibroblasts, fast time lapse (10 sec interval, 300 seconds). An excerpt: Fast (10 sec interval) time lapse images were acquired for 300 seconds.

Data set [2] is described as follows: HC-1 fluorescence in surfactant micelles (SDS, TritonX-100); CMC by sigmoidal fitting. The class given is physicochemical. Conditions: from HC-1 (2.5 μM) fluorescence intensity versus surfactant concentration. On the procedure: Initially 300 mM solution of sodium dodecyl sulfate (SDS) in milli-Q water was prepared. Then, solution of varied concentrations (1-300 mM) by serial dilution was prepared. All the prepared solutions were heated at 70° C. for about 15 minutes and stored at room temperature overnight. Similarly, a stock of 10 mM was prepared for TritonX-100 also. Then solution of different concentration (0.05-4 mM) was prepared by serial dilution.

Data set [3] in a line: Stability of dye stock solution. In kind it is physicochemical. Conditions: 1 mM in 50% DMSO-water, stored at about 4° C. On the procedure:
(§1) Formula I compounds (dyes) are positively charged and can be easily targeted to the mitochondria of the live cells. The dyes are highly specific for functional mitochondria. Localization is confirmed by ‘colocalization’ assays with mitochondria specific commercial dyes and high-resolution microscopy. […] This stock solution was stored at about 4° C.

The test system of data set [4] is mitochondria of human primary fibroblast cells. Briefly: Colocalization of HC-2 with MitoTracker Green. Conditions: live human primary fibroblast cells. In kind it is cell-based. How it is done: as §1
The test system of data set [5] is mitochondria of human embryonic kidney (HEK) cells. Briefly: Effect of CCCP on HC-2 fluorescence. In kind it is cell-based. Conditions: 5 μM CCCP. How it is done: as §1
In data set [6] the test system is live human pluripotent stem cells (hPSCs). Put plainly: Mitochondrial imaging of live pluripotent stem cells. The class given is cell-based. Conditions: 250 nM, 30 minutes, confocal.
Data set [7] has as its system mitochondria of live HEK 293 cells. Briefly: Effect of Monensin on HC-2 stained mitochondria. The class given is cell-based, human. Conditions: HC-2 250 nM, Monensin 10 μM, 0-90 minutes.
Data set [8] relates to primary mouse fibroblasts. Put plainly: Imaging local order and viscosity of mitochondria during fibroblast activation. In kind it is cell-based. Conditions: HC-1 250 nM with TMRE 125 nM. On the procedure: A study on the use of HC-1 for imaging local order and viscosity of mitochondria and use of said imaging to measure changes in mitochondrial function and cellular state and function was carried out.

The test system of data set [9] is mitochondria of U2OS cells. Put plainly: Effect of Monensin on HC-1 stained mitochondria. Conditions: Monensin 10 µM / 10 μM, 0, 30, 60 minutes. In kind it is cell-based, human.
Data set [10] in a line: Effect of pH, ions, serum protein, plasmid DNA and glutathione on HC-1 fluorescence. In kind it is physicochemical. Conditions: HC-1 2.5 μM. How it is done: 0.1 M buffers of identical ionic strength solution were used for carryout the experiments. For pH 3, 4, 5 and 5.5, acetate buffer was used, for pH 6.2, 6.9 and 7.4, phosphate buffer was used and for pH 8 and 9.2, Tris-HCl buffer was used. The used salts were Sodium Chloride (NaCl), Potassium Chloride (KCl), Magnesium Chloride (MgCl2), Zinc Chloride (ZnCl2), Nickel Chloride (NiCl2) and Ferric Chloride (FeCl3). Final concentration of the cations (except Zn) was 10 mM and prepared in 1× Phosphate Buffer Saline. For Zn (II), saturated aqueous solution was used. Bovine Serum Albumin (BSA), plasmid DNA and glutathione concentration were at 1 mg−ml^−1, 5 μg−ml^−1 and 10 μM respectively. […] Fluorescence measurement was performed after 30 minutes of incubation.

For data set [11], the system named is mitochondria of U2OS cells. Put plainly: Effect of CCCP on HC-1 fluorescence (mitochondrial membrane potential). Conditions: 5 μM CCCP. The class given is cell-based, human. On the procedure: Effect of Carbonyl Cyanide 3-Chloro Phenylhydrazone [CCCP]: Dye-labeled cells were imaged on the Olympus IX83 inverted microscope coupled to a 560 nm laser line connected to a Evolve 512 Delta EMCCD camera. 5 μM CCCP (final concentration) was used for the assay. Different regions were selected on the dish and imaged before the addition of CCCP and after addition at an interval of about 5 minutes for duration of about 15 minutes.

The test system of data set [12] is E14TG2a mouse embryonic stem cells. Briefly: Imaging HC-1 stained mitochondria of embryonic stem cells, incl. long term imaging to check cytotoxicity. In kind it is cell-based. Conditions: E14TG2a mouse ESCs with LIF. How it is done:
E14TG2a (mouse embryonic stem cells) were cultured in GMEM supplemented with FBS, Glutamine, Non-essential amino acids, β-mercaptoethanol, Penicilin-streptomycin and depending on culture conditions, with or without […] (LIF). […] Images were acquired on the FV1000 confocal microscope. Imaging set up used in the present example was same as the imaging set up used for colocalization described above.
Confocal (FV1000, Olympus) images were acquired for 12 hours at 3 hours interval.

The subject of data set [13] is mitochondria of U2OS cells. Briefly: Imaging of live cell mitochondria by HC-1 and co-localization assay with MitoTracker Green. In kind it is cell-based, human. Conditions: confocal. On the procedure: For imaging, cells were plated on fibronectin coated (final concentration of 10 μg/ml) glass-bottomed dishes and allowed to attach. […] Cells were then washed twice with DPBS and fresh serum-free media was added.
Co-localization assay of HC-1 using MitoTracker Green: Cells were labeled using both MitoTracker Green and HC-1 dyes (by aforementioned protocol). Confocal images were taken using Olympus FV1000 Confocal microscope (×60 oil immersion objective at 1.6× optical zoom). Excitation parameters used were 488 nm excitation and 500-530 nm emission for MitoTracker Green, and 543 nm excitation and emissions above 560 nm for HCl. Pearson correlation dot plot was constructed using Coloc2 plugin of ImageJ.

A short description of data set [14]: UV-Vis and steady state fluorescence of HC-1 in ten solvents; fluorescence quantum yield. The class given is physicochemical. Conditions: for Quantum yield: reference Rhodamine B (0.55). On the procedure:
UV-Vis measurement was performed in Shimadzu UV-Vis spectrophotometer (U2600) and steady state fluorescence study was performed in Horiba-Yobin (Fluorolog3) fluorescence spectrophotometer. For all the fluorescence measurements, excitation and emission slits were kept constant at 2 nm (except studies on pH dependence: excitation/emission=2/4 nm respectively). Final concentration was 2.5 μM (except for measurement of fluorescence quantum yield [1 μM] and lifetime [25 μM]) for all the spectroscopic studies.
The HC-1 absorption and fluorescence were recorded in ten solvents of varying polarity and viscosity.
An aqueous solution of Rhodamine B was used as reference. Fluorescence (integrated intensities) and absorbance values were obtained and the quantum yield was calculated using the following equation;
φ and φr: Quantum yield of sample and reference (0.55) respectively; A and Ar: Absorbance of sample and reference respectively; L: path length of the cuvette (here is same); N and Nr: refractive index of the solvents containing sample and reference; I and Ir: Integrated intensity of fluorescence emission of sample and reference respectively.

The mark [15] stands for this setting: HC-1 in Ethylene glycol (13.5 cP).
Where [16] appears, read: HC-1 in Glycerol (9.50 cP as printed).

As to “tetramethylrhodamine, ethyl ester [TMRE, reference compound]”, in [1], the “photo-toxicity during repeat photo-illumination” value is “irradiation induced depolarization of mitochondrial membrane” and the “photostability during fast imaging of mitochondria” value (from here on “photostability during fast imaging”) is recorded as “photobleaches”.

`CCCCCCCCCCCCOS(=O)(=O)[O-].[Na+]` [SDS, sodium dodecyl sulphate]: in [2], the “critical micellar concentration (CMC)” value is reported as roughly 7.5 mM.

In the case of `CN(C)c1ccc(/C=C/C=C/C2=[N+](C)c3ccc4ccccc4c3C2(C)C)cc1.[I-]` [HC-2, 2-((1E,3E)-4-(4-(Dimethylamino)phenyl)buta-1,3-dien-1-yl)-1,1,3-trimethyl-1H-benzo[e]indol-3-ium iodide], the “stability of stock solution” value in data set [3] is on record as “stable for one year”. Besides, the “2D intensity correlation with MitoTracker Green (Pearson R)” value in [4] turned out to be 0.91. Further, in data set [5], the “effect of CCCP on HC-2 fluorescence” value is listed as “loss of HC-2 fluorescence”. In [6], the “staining of mitochondria of live hPSCs” value is “uniform staining of the mitochondria”. Also, in data set [1], the “photostability during fast imaging” value was “highly photo-stable”. Besides, the “effect of Monensin on HC-2 fluorescence in mitochondria” value in [7] was “time-dependent increase in fluorescence intensity; also recorded: Time dependent increase in fluorescence intensity”.

With `CN(C)c1ccc(/C=C/C2=[N+](C)c3ccc4ccccc4c3C2(C)C)cc1.[I-]` [HC-1, (E)-2-(4-(Dimethylamino)styryl)-1,1,3-trimethyl-1H-benzo[e]indol-3-ium iodide], the “change of mitochondrial local ordering in activated fibroblasts” value in data set [8] is “increase in local ordering of the mitochondria”. Besides, the “effect of Monensin on HC-1 fluorescence in mitochondria” value in data set [9] is “significant increase in HC-1 fluorescence; also recorded: sensitive to changes in mitochondrial ordering”. Moreover, the “effect of pH on HC-1 emission” value in [10] (0.1 M buffers pH 3-9.2, small changes at ~pH 3 or ~pH 9) was “little or no effect”. In addition, the “effect of metal ions, serum proteins, plasmid DNA and glutathione (GSH) on HC-1 emission” value in data set [10] (30 minutes incubation) is reported as “did not significantly affect”. Moreover, the “staining of mitochondria of live hPSCs” value in [6] is “uniform staining of the mitochondria”. Besides, in [1], the “photostability during fast imaging” value is on record as “highly photo-stable; also recorded: significantly more photostable”. Also, the “effect of CCCP on HC-1 fluorescence” value in data set [11] is “rapid and complete loss of HC-1 fluorescence”. The “mitochondrial staining of embryonic stem cells” value in data set [12] is “bright staining of the mitochondrial structures”. The “2D intensity correlation with MitoTracker Green (Pearson R)” value in [13] was 0.95. Further, the λabs in [14] (HC-1 in Acetone (0.32 cP)) is listed as 553 nm; in data set [14] (HC-1 in Acetonitrile (0.37 cP)), 577 nm; in data set [14] (HC-1 in Benzene (0.6 cP)), 548 nm; in data set [14] (HC-1 in DMF (0.85 cP)) it was 553 nm; in data set [14] (HC-1 in Ethanol (1.2 cP)), 556 nm; in [14] (setting [15]), 562 nm. The λabs in data set [14] (setting [16]) came to 564 nm; in data set [14] (HC-1 in Methanol (0.6 cP)), 552 nm; in data set [14] (HC-1 in Water (1 cP)), 542 nm. In addition, the λem in data set [14] (HC-1 in Acetone (0.32 cP)) was 606 nm; in data set [14] (HC-1 in Acetonitrile (0.37 cP)), 613 nm; in data set [14] (HC-1 in Benzene (0.6 cP)), 608 nm; in data set [14] (HC-1 in DCM (0.43 cP)), 608 nm; in data set [14] (HC-1 in DMF (0.85 cP)), 610 nm; in [14] (HC-1 in Ethanol (1.2 cP)), 607 nm. Also, the λem in data set [14] (setting [15]) was 610 nm; in data set [14] (setting [16]), 610 nm; in data set [14] (HC-1 in Methanol (0.6 cP)), 603 nm; in data set [14] (HC-1 in Water (1 cP)), 605 nm. In addition, the Quantum yield was found to be 0.014 ± 0.0002 in data set [14] (HC-1 in Acetone (0.32 cP)); 0.028 ± 0.0002 in data set [14] (HC-1 in Acetonitrile (0.37 cP)); 0.014 ± 0.0001 in data set [14] (HC-1 in Benzene (0.6 cP)); 0.033 ± 0.0005 in data set [14] (HC-1 in DCM (0.43 cP)); 0.028 ± 0.0003 in data set [14] (HC-1 in DMF (0.85 cP)); 0.024 ± 0.0002 in data set [14] (HC-1 in Ethanol (1.2 cP)). Further, the Quantum yield in data set [14] (setting [15]) is given as 0.087 ± 0.0004; in data set [14] (setting [16]), 0.477 ± 0.0005; in [14] (HC-1 in Methanol (0.6 cP)) it was 0.018 ± 0.0002; in data set [14] (HC-1 in Water (1 cP)) it was 0.034 ± 0.001.

On to TritonX-100, for which the “critical micellar concentration (CMC)” value in data set [2] was roughly 1 mM.
